# Experimental data from patent US11407748B2, “Substituted pyrido[1,2-a]pyrimidines and pyrazino[1,2-a]pyrimidines for enhancing AMPA receptor function” (Takeda Pharmaceutical Company Limited, priority 2017, dated 2022).
# Target: T1, hGluR1 flip (Homo sapiens, UniProt P42261)
# T1 construct: expressed in transfected cells; host or cells: CHO-K1
# Assay: AMPA receptor function-enhancing activity using calcium influx as index
# Format: cell-based
# Settings: test compound 30 μM with 3 mM glutamic acid; CHO-K1/GluR1 flip/stargazin-expressing cells; 100% = 3 mM glutamic acid + 300 μM cyclothiazide, 0% = 3 mM glutamic acid alone
# Source text: Experimental Example 1 Measurement Method of AMPA Receptor Function-Enhancing Activity of Compound Using Calcium Influx as Index
# (1) Construction of Expression Gene
# Human GluR^1 flip cDNA was amplified by PCR method using forward primer […] (SEQ ID NO: 1) and reverse primer […] (SEQ ID NO: 2) artificially synthesized using human brain-derived cDNA (BD Bioscience) as a template. The amplified product was digested with restriction enzymes EcoRI, NotI (TAKARA SHUZO CO. LTD.) and incorporated into the same site of pcDNA3.1 (+) (Invitrogen) to construct pcDNA3.1(+)/human GluR1 flip gene. Human stargazin cDNA was amplified by PCR method using forward primer […] (SEQ ID NO: 3) and reverse primer […] (SEQ ID NO: 4) artificially synthesized using human hippocampus cDNA as a template. The amplified product was digested with restriction enzymes XhoI, BamHI (TAKARA SHUZO CO. LTD.) and incorporated into the same site of pcDNA3.1(−) (Invitrogen) to construct pcDNA3.1 Zeo(−)/human stargazing gene.
# (2) Construction of GluR1 Flip/Stargazin Expressing Cell
# CHO-K1 cells passaged in a culture medium (Ham's F12 medium (Invitrogen) added with 10% inactivated fetal bovine serum (Morgate) and penicillin, streptomycin (Invitrogen)) were detached using 0.05% trypsin and 0.53 mM EDTA (Invitrogen) diluted with D-PBS(−). The detached cells were suspended in a culture medium, and recovered by centrifugation at 1,000 rpm. The recovered cells were re-suspended in D-PBS(−) and added into 0.4 cm electroporation cuvette (BioRad). pcDNA3.1(+)/human GluR1 flip gene (5 μg) and pcDNA3.1 Zeo(−)/human stargazin gene (15 μg) were added, and introduced into CHO-K1 cells under the conditions of 950 μFd, […] and using Gene Pulser II (BioRad). The introduced cells were cultured overnight in a culture medium. The next day, using a selection medium (culture medium added with zeocin (Invitrogen) at 250 μg/mL), the cells were plated in a 96 well plate at 250 cells/well. The clones showing drug resistance were selected, and GluR1 flip/stargazin expression clones were selected by an assay method shown below using calcium influx as an index.
# (3) Measurement Method of AMPA Receptor Function-Enhancing Activity of Compound, Using Calcium Influx as an Index
# CHO-K1/GluR1 flip/stargazin-expressing cells were plated on a 384 well black bottom transparent plate, and cultured for 2 days in a CO2 incubator (SANYO ELECTRIC Co. Ltd.) at 37° C. The medium of the cell plate was removed. A calcium indicator (Calcium5 Assay Kit, Molecular Devices) was diluted with an assay buffer (HESS (Thermo Fisher Scientific), 0.1% BSA (Merck Millipoer) and 10 mM HEPES (Thermo Fisher Scientific)), and 1.25 mM probenecid (Dojindo Laboratories) was added thereto. The mixture prepared above was added at 30 μL/well (100 μL/well in case of 96 wells) to the well, and the well was left standing in 37° C., CO2 incubator for 1 hr. The cell plate was set in CellLux (PerkinElmer), a mixture (15 μL) (50 μL/well in case of 96 wells) of 9 mM glutamic acid (final concentration 3 mM) diluted with an assay buffer and a test compound (test compound concentration 30 μM) was added thereto, and variation in the amount of fluorescence was measured for 3 min. The variation of fluorescence level of a well added with final concentration 3 mM of glutamic acid and 300 μM cyclothiazide (TOCRIS) was defined as 100%, the variation of fluorescence level of a well added with final concentration 3 mM of glutamic acid alone was defined as 0%, and the activity of the compound was calculated by the following formula. activity (%)=(X−C)/(T−C)×100 • T: variation of fluorescence level of well added with final concentration 3 mM of glutamic acid and 300 μM cyclothiazide • C: variation of fluorescence level of well added with final concentration 3 mM of glutamic acid alone • X: variation of fluorescence level of well added with test compound
# T1 sequence (P42261 19-906 isoform P42261-2 limits assumed): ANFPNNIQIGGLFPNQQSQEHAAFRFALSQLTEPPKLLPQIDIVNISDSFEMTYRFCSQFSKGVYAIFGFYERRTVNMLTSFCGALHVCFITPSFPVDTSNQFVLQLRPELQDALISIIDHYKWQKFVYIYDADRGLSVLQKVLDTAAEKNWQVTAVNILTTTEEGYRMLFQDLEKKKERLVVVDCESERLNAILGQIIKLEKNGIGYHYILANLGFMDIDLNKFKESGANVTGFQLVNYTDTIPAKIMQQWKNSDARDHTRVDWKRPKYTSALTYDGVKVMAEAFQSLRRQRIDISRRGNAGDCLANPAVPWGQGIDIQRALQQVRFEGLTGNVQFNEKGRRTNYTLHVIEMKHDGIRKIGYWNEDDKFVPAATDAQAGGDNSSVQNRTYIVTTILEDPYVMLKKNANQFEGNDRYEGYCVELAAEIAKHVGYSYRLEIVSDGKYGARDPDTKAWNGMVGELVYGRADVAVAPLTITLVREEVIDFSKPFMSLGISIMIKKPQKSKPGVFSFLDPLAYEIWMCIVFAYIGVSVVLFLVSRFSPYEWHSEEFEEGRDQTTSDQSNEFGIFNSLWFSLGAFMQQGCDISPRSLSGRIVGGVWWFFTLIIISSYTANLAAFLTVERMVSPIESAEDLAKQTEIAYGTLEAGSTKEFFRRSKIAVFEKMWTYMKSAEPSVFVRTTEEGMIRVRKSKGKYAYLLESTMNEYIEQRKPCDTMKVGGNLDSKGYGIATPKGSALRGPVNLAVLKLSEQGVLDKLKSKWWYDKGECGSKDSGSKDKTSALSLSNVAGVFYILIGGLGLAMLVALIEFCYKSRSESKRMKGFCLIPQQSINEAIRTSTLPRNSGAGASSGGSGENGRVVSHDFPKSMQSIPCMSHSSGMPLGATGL
# T1 sequence (Q9Y698 whole entry partner): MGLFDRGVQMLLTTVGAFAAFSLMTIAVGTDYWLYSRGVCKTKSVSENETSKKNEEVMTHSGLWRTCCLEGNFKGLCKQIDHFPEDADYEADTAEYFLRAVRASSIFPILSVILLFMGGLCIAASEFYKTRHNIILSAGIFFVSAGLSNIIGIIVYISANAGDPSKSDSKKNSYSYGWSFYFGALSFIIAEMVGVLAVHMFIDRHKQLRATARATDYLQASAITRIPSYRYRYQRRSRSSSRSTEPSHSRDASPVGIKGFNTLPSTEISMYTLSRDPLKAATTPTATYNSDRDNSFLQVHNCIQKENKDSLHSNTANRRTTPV
activation at 30 µM [%],hGluR1 flip/30 μM (%),SMILES
81.4,,"CN(C(=O)c1ccc(-c2cccn3c(=O)cc(C(F)(F)F)nc23)cc1F)C1CCOCC1 [Example 82, 2-fluoro-N-methyl-4-(4-oxo-2-(trifluoromethyl)-4H-pyrido[1,2-a]pyrimidin-9-yl)-N-(tetrahydro-2H-pyran-4-yl)benzamide]"
110,,"O=C(NC1CCOCC1)c1ccc(-c2cccn3c(=O)c(Cl)c(C(F)(F)F)nc23)cc1 [Example 131, 4-(3-chloro-4-oxo-2-(trifluoromethyl)-4H-pyrido[1,2-a]pyrimidin-9-yl)-N-(tetrahydro-2H-pyran-4-yl)benzamide]"
,86,"Cc1c(C(F)(F)F)nc2c(-c3ccc(C(=O)N4CCOC(C(F)F)C4)cc3)cccn2c1=O (centres unmarked) [Example 107, 9-(4-((2-(difluoromethyl)morpholin-4-yl)carbonyl)phenyl)-3-methyl-2-(trifluoromethyl)-4H-pyrido[1,2-a]pyrimidin-4-one]"
96,,"O=C(c1ccc(-c2cccn3c(=O)c(Br)c(C(F)(F)F)nc23)cc1F)N1CC(F)(F)C1 [Example 130, 3-bromo-9-(4-((3,3-difluoroazetidin-1-yl)carbonyl)-3-fluorophenyl)-2-(trifluoromethyl)-4H-pyrido[1,2-a]pyrimidin-4-one]"
80.9,,"CO[C@@H]1CCN(C(=O)c2ccc(-c3cccn4c(=O)c(Br)c(C(F)(F)F)nc34)cc2F)C1 [Example 91, 3-bromo-9-(3-fluoro-4-(((3R)-3-methoxypyrrolidin-1-yl)carbonyl)phenyl)-2-(trifluoromethyl)-4H-pyrido[1,2-a]pyrimidin-4-one]"
106,,"O=C(N[C@H]1CCCOC1)c1ccc(-c2cccn3c(=O)c(Cl)c(C(F)(F)F)nc23)cc1 [Example 132, 4-(3-chloro-4-oxo-2-(trifluoromethyl)-4H-pyrido[1,2-a]pyrimidin-9-yl)-N-((3S)-tetrahydro-2H-pyran-3-yl)benzamide]"
71.5,,"N#CC1CCN(C(=O)c2ccc(-c3cccn4c(=O)c(Br)c(C(F)(F)F)nc34)cc2)C1 (centres unmarked) [Example 120, 1-(4-(3-bromo-4-oxo-2-(trifluoromethyl)-4H-pyrido[1,2-a]pyrimidin-9-yl)benzoyl)pyrrolidine-3-carbonitrile]"
88.6,,"O=C(c1ccc(-c2cccn3c(=O)c(Br)c(C(F)(F)F)nc23)cc1)N1CCOC(C(F)F)C1 (centres unmarked) [Example 103, 3-bromo-9-(4-((2-(difluoromethyl)morpholin-4-yl)carbonyl)phenyl)-2-(trifluoromethyl)-4H-pyrido[1,2-a]pyrimidin-4-one]"
84,,"CN(CC1(C#N)CC1)C(=O)c1ccc(-c2cccn3c(=O)c(Br)c(C(F)(F)F)nc23)cc1 [Example 118, 4-(3-bromo-4-oxo-2-(trifluoromethyl)-4H-pyrido[1,2-a]pyrimidin-9-yl)-N-((1-cyanocyclopropyl)methyl)-N-methylbenzamide]"
109,,"Cc1c(C(F)(F)F)nc2c(-c3ccc(C(=O)NC4CCOCC4)c(F)c3)cccn2c1=O [Example 85, 2-fluoro-4-(3-methyl-4-oxo-2-(trifluoromethyl)-4H-pyrido[1,2-a]pyrimidin-9-yl)-N-(tetrahydro-2H-pyran-4-yl)benzamide]"

# Second part, the molecule before the results:
SMILES,activation at 30 µM [%],hGluR1 flip/30 μM (%)
"O=C(NCC(F)F)c1ccc(-c2cccn3c(=O)cc(C(F)(F)F)nc23)cc1 [Example 26, N-(2,2-difluoroethyl)-4-(4-oxo-2-(trifluoromethyl)-4H-pyrido[1,2-a]pyrimidin-9-yl)benzamide]",74.9,
"O=C(NCC(F)(F)F)c1ccc(-c2cccn3c(=O)cc(C(F)(F)F)nc23)cc1F [Example 43, 2-fluoro-4-(4-oxo-2-(trifluoromethyl)-4H-pyrido[1,2-a]pyrimidin-9-yl)-N-(2,2,2-trifluoroethyl)benzamide]",84.1,
"Cc1c(C(F)(F)F)nc2c(-c3ccc(C(=O)N4CCc5cccnc54)c(F)c3)cccn2c1=O [Example 80, 9-(4-(2,3-dihydro-1H-pyrrolo[2,3-b]pyridin-1-ylcarbonyl)-3-fluorophenyl)-3-methyl-2-(trifluoromethyl)-4H-pyrido[1,2-a]pyrimidin-4-one]",90.6,
"O=C(c1ccc(-c2cccn3c(=O)cc(C(F)(F)F)nc23)cc1)N1CCC(O)(C(F)(F)F)C1 (centres unmarked) [Example 15, 9-(4-((3-hydroxy-3-(trifluoromethyl)pyrrolidin-1-yl)carbonyl)phenyl)-2-(trifluoromethyl)-4H-pyrido[1,2-a]pyrimidin-4-one]",79.9,
"O=C(c1ccc(-c2cccn3c(=O)cc(C(F)(F)F)nc23)cc1)N1CCC(O)(C(F)(F)F)CC1 [Example 33, 9-(4-((4-hydroxy-4-(trifluoromethyl)piperidin-1-yl)carbonyl)phenyl)-2-(trifluoromethyl)-4H-pyrido[1,2-a]pyrimidin-4-one]",79.4,
"O=C(c1ccc(-c2cccn3c(=O)c(Br)c(C(F)(F)F)nc23)cc1)N1CCOC(F)(F)C1 [Example 19, 3-bromo-9-(4-((2,2-difluoromorpholin-4-yl)carbonyl)phenyl)-2-(trifluoromethyl)-4H-pyrido[1,2-a]pyrimidin-4-one]",79.4,
"O=C(c1ccc(-c2cccn3c(=O)c(Cl)c(C(F)(F)F)nc23)cc1)N1CCOCC1 [Example 17, 3-chloro-9-(4-(morpholin-4-ylcarbonyl)phenyl)-2-(trifluoromethyl)-4H-pyrido[1,2-a]pyrimidin-4-one]",95.2,
"O=C(NCC(F)(F)F)c1ccc(-c2cccn3c(=O)c(Cl)c(C(F)(F)F)nc23)cc1 [Example 35, 4-(3-chloro-4-oxo-2-(trifluoromethyl)-4H-pyrido[1,2-a]pyrimidin-9-yl)-N-(2,2,2-trifluoroethyl)benzamide]",79.8,
"CCC1(O)CCN(C(=O)c2ccc(-c3cccn4c(=O)cc(C(F)(F)F)nc34)cc2)CC1 [Example 8, 9-(4-((4-ethyl-4-hydroxypiperidin-1-yl)carbonyl)phenyl)-2-(trifluoromethyl)-4H-pyrido[1,2-a]pyrimidin-4-one]",79.6,
"O=C(c1ccc(-c2cccn3c(=O)c(Br)c(C(F)(F)F)nc23)cc1)N1CCCC1 [Example 62, 3-bromo-9-(4-(pyrrolidin-1-ylcarbonyl)phenyl)-2-(trifluoromethyl)-4H-pyrido[1,2-a]pyrimidin-4-one]",76.9,
"O=C(c1ccc(-c2cccn3c(=O)cc(C(F)(F)F)nc23)cc1)N1CCC(O)(C(F)(F)F)C1 (centres unmarked) [Example 6, 9-(4-((3-hydroxy-3-(trifluoromethyl)pyrrolidin-1-yl)carbonyl)phenyl)-2 (trifluoromethyl)-4H-pyrido[1,2-a]pyrimidin-4-one]",,88.7
"C[C@@H]1CN(C(=O)c2ccc(-c3cccn4c(=O)c(Br)c(C(F)(F)F)nc34)cc2)CCO1 [Example 49, 3-bromo-9-(4-(((2R)-2-methylmorpholin-4-yl)carbonyl)phenyl)-2-(trifluoromethyl)-4H-pyrido[1,2-a]pyrimidin-4-one]",71.6,
"Cc1c(C(F)(F)F)nc2c(-c3ccc(C(=O)N4CCOC(F)(F)C4)cc3)cccn2c1=O [Example 68, 9-(4-((2,2-difluoromorpholin-4-yl)carbonyl)phenyl)-3-methyl-2-(trifluoromethyl)-4H-pyrido[1,2-a]pyrimidin-4-one]",88.4,
